ChEMBL document CHEMBL5537135, “Novel antimicrobial peptides modified with fluorinated sulfono-γ-AA having high stability and targeting multidrug-resistant bacteria infections” (Eur J Med Chem, 2024)
Values after ≈ are worked out from the molar mass of the structure shown. Numbered stars: 1 amine (or outer) side, 2 acyl side, 3 side chain; on linkers, the order of the positions; unused ones are H or OH. Square brackets hold non-standard residues; d marks the D form. Peptide text beside a SMILES is read from it. * marks the point of attachment. X4 = N[C@@H](Cc1ccccc1)CN(CC(=O)[*:2])[*:1]; X7 = O=S(=O)(c1cc(C(F)(F)F)cc(C(F)(F)F)c1)*

Tests used:
Staphylococcus aureus [1] = experiment: Antimicrobial activity against Staphylococcus aureus ATCC 25923 assessed as inhibition of visible bacterial growth incubated for 18 hrs by broth-dilution method; assay type: functional
Erythrocyte = experiment: Hemolytic activity against mouse Red blood cell incubated for 1 hr; assay type: toxicity, cell-based
[2] = tested on: Staphylococcus epidermidis; experiment: Antimicrobial activity against Staphylococcus epidermidis ATCC 12228 assessed as inhibition of visible bacterial growth incubated for 18 hrs by broth-dilution method; assay type: functional
Escherichia coli = experiment: Antimicrobial activity against Escherichia coli ATCC 25922 assessed as inhibition of visible bacterial growth incubated for 18 hrs by broth-dilution method; assay type: functional
Staphylococcus aureus [3] = experiment: Antimicrobial activity against methicillin-resistant Staphylococcus aureus ATCC 33591 assessed as inhibition of visible bacterial growth incubated for 18 hrs by broth-dilution method; assay type: functional
Pseudomonas aeruginosa [4] = experiment: Antimicrobial activity against Pseudomonas aeruginosa ATCC 27853 assessed as inhibition of visible bacterial growth incubated for 18 hrs by broth-dilution method; assay type: functional
Acinetobacter baumannii = experiment: Antimicrobial activity against Acinetobacter baumannii ATCC 19606 assessed as inhibition of visible bacterial growth incubated for 18 hrs by broth-dilution method; assay type: functional
Bacillus subtilis = experiment: Antimicrobial activity against Bacillus subtilis ATCC 23857 assessed as inhibition of visible bacterial growth incubated for 18 hrs by broth-dilution method; assay type: functional
Salmonella typhimurium = experiment: Antimicrobial activity against Salmonella typhimurium ATCC 14028 assessed as inhibition of visible bacterial growth incubated for 18 hrs by broth-dilution method; assay type: functional, Salmonella enterica subsp. enterica serovar Typhimurium; conditions: Salmonella enterica
[5] = Stability in human serum assessed as half life measured for 5 hrs by RP-HPLC analysis; assay type: ADME, cell-free
Staphylococcus aureus [6] = experiment: Antimicrobial activity against methicillin-resistant Staphylococcus aureus 6 assessed as inhibition of visible bacterial growth incubated for 18 hrs by broth-dilution method; assay type: functional
Staphylococcus aureus [7] = experiment: Antimicrobial activity against methicillin-resistant Staphylococcus aureus 9 assessed as inhibition of visible bacterial growth incubated for 18 hrs by broth-dilution method; assay type: functional
Staphylococcus aureus [8] = experiment: Antimicrobial activity against methicillin-resistant Staphylococcus aureus 4 assessed as inhibition of visible bacterial growth incubated for 18 hrs by broth-dilution method; assay type: functional
Staphylococcus aureus [9] = experiment: Antimicrobial activity against methicillin-resistant Staphylococcus aureus 3 assessed as inhibition of visible bacterial growth incubated for 18 hrs by broth-dilution method; assay type: functional
Staphylococcus aureus [10] = experiment: Antimicrobial activity against methicillin-resistant Staphylococcus aureus 7 assessed as inhibition of visible bacterial growth incubated for 18 hrs by broth-dilution method; assay type: functional
Staphylococcus aureus [11] = experiment: Antimicrobial activity against methicillin-resistant Staphylococcus aureus 10 assessed as inhibition of visible bacterial growth incubated for 18 hrs by broth-dilution method; assay type: functional
Staphylococcus aureus [12] = experiment: Antimicrobial activity against methicillin-resistant Staphylococcus aureus 8 assessed as inhibition of visible bacterial growth incubated for 18 hrs by broth-dilution method; assay type: functional
Staphylococcus aureus [13] = experiment: Antimicrobial activity against methicillin-resistant Staphylococcus aureus 5 assessed as inhibition of visible bacterial growth incubated for 18 hrs by broth-dilution method; assay type: functional
Staphylococcus aureus [14] = experiment: Antimicrobial activity against methicillin-resistant Staphylococcus aureus 2 assessed as inhibition of visible bacterial growth incubated for 18 hrs by broth-dilution method; assay type: functional
Staphylococcus aureus [15] = experiment: Antimicrobial activity against methicillin-resistant Staphylococcus aureus 1 assessed as inhibition of visible bacterial growth incubated for 18 hrs by broth-dilution method; assay type: functional
Pseudomonas aeruginosa [16] = experiment: Antimicrobial activity against multidrug-resistant Pseudomonas aeruginosa 119 assessed as inhibition of visible bacterial growth incubated for 18 hrs by broth-dilution method; assay type: functional
Pseudomonas aeruginosa [17] = experiment: Antimicrobial activity against multidrug-resistant Pseudomonas aeruginosa 156 assessed as inhibition of visible bacterial growth incubated for 18 hrs by broth-dilution method; assay type: functional
Pseudomonas aeruginosa [18] = experiment: Antimicrobial activity against multidrug-resistant Pseudomonas aeruginosa 125 assessed as inhibition of visible bacterial growth incubated for 18 hrs by broth-dilution method; assay type: functional
Pseudomonas aeruginosa [19] = experiment: Antimicrobial activity against multidrug-resistant Pseudomonas aeruginosa 124 assessed as inhibition of visible bacterial growth incubated for 18 hrs by broth-dilution method; assay type: functional
Pseudomonas aeruginosa [20] = experiment: Antimicrobial activity against multidrug-resistant Pseudomonas aeruginosa 050 assessed as inhibition of visible bacterial growth incubated for 18 hrs by broth-dilution method; assay type: functional
Pseudomonas aeruginosa [21] = experiment: Antimicrobial activity against multidrug-resistant Pseudomonas aeruginosa 157 assessed as inhibition of visible bacterial growth incubated for 18 hrs by broth-dilution method; assay type: functional
Staphylococcus aureus [22] = experiment: Antibacterial activity against antibiotics-resistant Staphylococcus aureus ATCC 33591 assessed as reduction in microbial growth; assay type: functional
Pseudomonas aeruginosa [23] = experiment: Antibacterial activity against antibiotics-resistant Pseudomonas aeruginosa […] assessed as reduction in microbial growth; assay type: functional
Pseudomonas aeruginosa [24] = experiment: Antimicrobial activity against multidrug-resistant Pseudomonas aeruginosa 085 assessed as inhibition of visible bacterial growth incubated for 18 hrs by broth-dilution method; assay type: functional
Pseudomonas aeruginosa [25] = experiment: Antimicrobial activity against multidrug-resistant Pseudomonas aeruginosa 061 assessed as inhibition of visible bacterial growth incubated for 18 hrs by broth-dilution method; assay type: functional
Pseudomonas aeruginosa [26] = experiment: Antimicrobial activity against multidrug-resistant Pseudomonas aeruginosa 073 assessed as inhibition of visible bacterial growth incubated for 18 hrs by broth-dilution method; assay type: functional
Pseudomonas aeruginosa [27] = experiment: Antimicrobial activity against multidrug-resistant Pseudomonas aeruginosa 516 assessed as inhibition of visible bacterial growth incubated for 18 hrs by broth-dilution method; assay type: functional

Row | Compound | MIC (Staphylococcus aureus [1]) [µg/mL] | MHC (Erythrocyte) [µg/mL] | MIC [2] [µg/mL] | MIC (Escherichia coli) [µg/mL] | MIC (Staphylococcus aureus [3]) [µg/mL] | MIC (Pseudomonas aeruginosa [4]) [µg/mL] | MIC (Acinetobacter baumannii) [µg/mL] | MIC (Bacillus subtilis) [µg/mL] | MIC (Salmonella typhimurium) [µg/mL] | MIC (Staphylococcus aureus [6]) [µg/mL] | MIC (Staphylococcus aureus [7]) [µg/mL] | MIC (Staphylococcus aureus [8]) [µg/mL] | MIC (Staphylococcus aureus [9]) [µg/mL] | MIC (Staphylococcus aureus [10]) [µg/mL] | MIC (Staphylococcus aureus [11]) [µg/mL] | MIC (Staphylococcus aureus [12]) [µg/mL] | MIC (Staphylococcus aureus [13]) [µg/mL] | MIC (Staphylococcus aureus [14]) [µg/mL] | MIC (Staphylococcus aureus [15]) [µg/mL] | MIC (Pseudomonas aeruginosa [16]) [µg/mL] | other results
1 | CC(C)C[C@H](NC(=O)[C@H](CC(C)C)NC(=O)[C@H](CCCCN)NC(=O)[C@H](CCCCN)NC(=O)[C@H](CC(C)C)NC(=O)[C@H](C)NC(=O)[C@H](CCCCN)NC(=O)CN(C[C@@H](N)Cc1ccccc1)S(=O)(=O)c1cc(C(F)(F)F)cc(C(F)(F)F)c1)C(N)=O (X7-[X4]KALKKLL-NH2) | 8 (≈ 6.26 µM) | 128 | 8 (≈ 6.26 µM) | 16 (≈ 12.5 µM) | 8 (≈ 6.26 µM) | 16 (≈ 12.5 µM) | 16 (≈ 12.5 µM) | 4 (≈ 3.13 µM) | 8 (≈ 6.26 µM) |  |  |  |  |  |  |  |  |  |  |  | 
2 | CC(C)C[C@H](NC(=O)[C@H](CC(C)C)NC(=O)[C@H](CCCCN)NC(=O)[C@H](CCCCN)NC(=O)[C@H](CC(C)C)NC(=O)[C@H](CC(C)C)NC(=O)[C@H](CCCCN)NC(=O)CN(C[C@@H](N)Cc1ccccc1)S(=O)(=O)c1cc(C(F)(F)F)cc(C(F)(F)F)c1)C(N)=O (X7-[X4]KLLKKLL-NH2) | 4 (≈ 3.03 µM) | 32 | 8 (≈ 6.06 µM) | 8 (≈ 6.06 µM) | 8 (≈ 6.06 µM) | 8 (≈ 6.06 µM) | 16 (≈ 12.1 µM) | 4 (≈ 3.03 µM) | 8 (≈ 6.06 µM) |  |  |  |  |  |  |  |  |  |  |  | half-life [5]: 5.6 h
3 | CC1(C)S[C@@H]2[C@H](NC(=O)[C@H](N)c3ccc(O)cc3)C(=O)N2[C@H]1C(=O)O [AMOXICILLIN] | 1 (≈ 2.74 µM) |  | 256 (≈ 701 µM) | 4 (≈ 10.9 µM) | 128 (≈ 350 µM) | 256 (≈ 701 µM) | 128 (≈ 350 µM) | 256 (≈ 701 µM) | 256 (≈ 701 µM) | 32 (≈ 87.6 µM) | 8 (≈ 21.9 µM) | 8 (≈ 21.9 µM) | 4 (≈ 10.9 µM) | 16 (≈ 43.8 µM) | 32 (≈ 87.6 µM) | 4 (≈ 10.9 µM) | 32 (≈ 87.6 µM) | 4 (≈ 10.9 µM) | 4 (≈ 10.9 µM) |  | 
4 | C[C@H]1[C@H](NC(=O)/C(=N\OC(C)(C)C(=O)O)c2csc(N)n2)C(=O)N1S(=O)(=O)O [AZTREONAM] |  |  |  |  |  |  |  |  |  |  |  |  |  |  |  |  |  |  |  | 8 (≈ 18.4 µM) | MIC (Pseudomonas aeruginosa [17]): 256 µg/mL (≈ 588 µM); MIC (Pseudomonas aeruginosa [18]): 8 µg/mL (≈ 18.4 µM); MIC (Pseudomonas aeruginosa [19]): 4 µg/mL (≈ 9.19 µM); MIC (Pseudomonas aeruginosa [20]): 8 µg/mL (≈ 18.4 µM); MIC (Pseudomonas aeruginosa [21]): 8 µg/mL (≈ 18.4 µM); MIC (Staphylococcus aureus [22]): 32 µg/mL; MIC (Pseudomonas aeruginosa [23]): 32 µg/mL; MIC (Pseudomonas aeruginosa [24]): 8 µg/mL (≈ 18.4 µM); MIC (Pseudomonas aeruginosa [25]): 256 µg/mL (≈ 588 µM)
5 | C[C@@H](O)[C@H]1C(=O)N2C(C(=O)O)=C(SCCNC=N)C[C@H]12 [IMIPENEM ANHYDROUS] | 1 (≈ 3.34 µM) |  | 1 (≈ 3.34 µM) | 1 (≈ 3.34 µM) | 32 (≈ 107 µM) | 2 (≈ 6.68 µM) | 1 (≈ 3.34 µM) | 1 (≈ 3.34 µM) | 1 (≈ 3.34 µM) | 1 (≈ 3.34 µM) | 1 (≈ 3.34 µM) | 1 (≈ 3.34 µM) | 1 (≈ 3.34 µM) | 1 (≈ 3.34 µM) | 1 (≈ 3.34 µM) | 1 (≈ 3.34 µM) | 1 (≈ 3.34 µM) | 1 (≈ 3.34 µM) | 1 (≈ 3.34 µM) | 2 (≈ 6.68 µM) | MIC (Pseudomonas aeruginosa [26]): 4 µg/mL (≈ 13.4 µM); MIC (Pseudomonas aeruginosa [17]): 4 µg/mL (≈ 13.4 µM); MIC (Pseudomonas aeruginosa [18]): 8 µg/mL (≈ 26.7 µM); MIC (Pseudomonas aeruginosa [19]): 4 µg/mL (≈ 13.4 µM); MIC (Pseudomonas aeruginosa [20]): 8 µg/mL (≈ 26.7 µM); MIC (Pseudomonas aeruginosa [21]): 2 µg/mL (≈ 6.68 µM); MIC (Staphylococcus aureus [22]): 32 µg/mL; MIC (Pseudomonas aeruginosa [23]): 32 µg/mL; MIC (Pseudomonas aeruginosa [24]): 8 µg/mL (≈ 26.7 µM); MIC (Pseudomonas aeruginosa [27]): 4 µg/mL (≈ 13.4 µM); MIC (Pseudomonas aeruginosa [25]): 2 µg/mL (≈ 6.68 µM)
6 | H-FLKLLKKLL-NH2 | 16 | 256 | 16 | 32 | 16 | 8 | 16 | 4 | 16 | 8 | 4 | 8 | 4 | 4 | 4 | 8 | 8 | 8 | 4 | 4 | MIC (Pseudomonas aeruginosa [26]): 8 µg/mL; MIC (Pseudomonas aeruginosa [17]): 8 µg/mL; MIC (Pseudomonas aeruginosa [18]): 8 µg/mL; MIC (Pseudomonas aeruginosa [19]): 8 µg/mL; MIC (Pseudomonas aeruginosa [20]): 8 µg/mL; MIC (Pseudomonas aeruginosa [21]): 8 µg/mL; half-life [5]: 1.09 h; MIC (Pseudomonas aeruginosa [24]): 8 µg/mL; MIC (Pseudomonas aeruginosa [27]): 8 µg/mL; MIC (Pseudomonas aeruginosa [25]): 8 µg/mL
